Data taken from the supplement of paper PMC10307832.

Tests used:
Experiment in all cases: relative viability (nuclei count vs DMSO), 5 days (fraction); higher = more cells survive
LCLC-103H = test system: LCLC-103H
Procedure, shortened: (§1)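 Each reported value is a median over duplicate plates. It expresses relative viability: treated-well nuclei count divided by vehicle-well nuclei count. Lung cancer cell lines in 1536-well plates were dosed by pin tool a day after seeding, alone with one drug or with a fixed anchor-drug dose plus five library-drug doses (not always all listed) in √10 steps, and nuclei were counted after 5 days.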

LXF-289 = test system: LXF-289
Procedure, shortened: as §1

NCI-H1355 = test system: NCI-H1355
Procedure, shortened: as §1

NCI-H1651 = test system: NCI-H1651
Procedure, shortened: as §1

NCI-H1755 = test system: NCI-H1755
Procedure, shortened: as §1

NCI-H1915 = test system: NCI-H1915
Procedure, shortened: as §1

NCI-H2347 = test system: NCI-H2347
Procedure, shortened: as §1

NCI-H3122 = test system: NCI-H3122
Procedure, shortened: as §1

NCI-H322M = test system: NCI-H322M
Procedure, shortened: as §1

NCI-H441 = test system: NCI-H441
Procedure, shortened: as §1

NCI-H460 = settings: first compound 0.0002 µM
Procedure, shortened: as §1

With `CC(=O)O[C@@]12CO[C@@H]1C[C@H](O)[C@@]1(C)C(=O)[C@H](O)C3=C(C)[C@@H](OC(=O)[C@H](O)[C@@H](NC(=O)OC(C)(C)C)c4ccccc4)C[C@@](O)([C@@H](OC(=O)c4ccccc4)[C@H]21)C3(C)C` [Docetaxel] + Cc1cc(Nc2cc(N3CCN(C)CC3)nc(Sc3ccc(NC(=O)C4CC4)cc3)n2)n[nH]1 [Tozasertib] (partner 0.1 µM) the relative viability (LCLC-103H; first compound 0.0002 µM) was 0.48, the relative viability (LCLC-103H; first compound 0.000632 µM) was 0.39 and the relative viability (LCLC-103H; first compound 0.002 µM) was 0.358. For the same compound, the relative viability (LCLC-103H; first compound 0.006325 µM) was 0.377, the relative viability (LCLC-103H; first compound 0.02 µM) was 0.296 and the relative viability (LXF-289; first compound 0.0002 µM) was 0.172. The relative viability (LXF-289; first compound 0.000632 µM) was 0.165, the relative viability (LXF-289; first compound 0.006325 µM) was 0.125 and the relative viability (LXF-289; first compound 0.02 µM) was 0.114. For the same compound, the relative viability (NCI-H1355; first compound 0.0002 µM) was 0.453, the relative viability (NCI-H1355; first compound 0.000632 µM) was 0.43 and the relative viability (NCI-H1355; first compound 0.002 µM) was 0.271. The relative viability (NCI-H1355; first compound 0.006325 µM) was 0.263, the relative viability (NCI-H1355; first compound 0.02 µM) was 0.202 and the relative viability (NCI-H1651; first compound 0.0002 µM) was 0.716. It also gave a relative viability (NCI-H1651; first compound 0.000632 µM) of 0.717, a relative viability (NCI-H1651; first compound 0.002 µM) of 0.187 and a relative viability (NCI-H1651; first compound 0.006325 µM) of 0.189. The relative viability (NCI-H1755; first compound 0.0002 µM) was 0.62, the relative viability (NCI-H1755; first compound 0.000632 µM) was 0.609 and the relative viability (NCI-H1755; first compound 0.002 µM) was 0.46. It also gave a relative viability (NCI-H1755; first compound 0.006325 µM) of 0.335, a relative viability (NCI-H1755; first compound 0.02 µM) of 0.373 and a relative viability (NCI-H1915; first compound 0.0002 µM) of 0.426. It also gave a relative viability (NCI-H1915; first compound 0.000632 µM) of 0.322, a relative viability (NCI-H1915; first compound 0.002 µM) of 0.247 and a relative viability (NCI-H1915; first compound 0.006325 µM) of 0.201. It also gave a relative viability (NCI-H1915; first compound 0.02 µM) of 0.142, a relative viability (NCI-H2347; first compound 0.0002 µM) of 0.511 and a relative viability (NCI-H2347; first compound 0.000632 µM) of 0.594. It also gave a relative viability (NCI-H2347; first compound 0.002 µM) of 0.441, a relative viability (NCI-H2347; first compound 0.006325 µM) of 0.293 and a relative viability (NCI-H2347; first compound 0.02 µM) of 0.268. The relative viability (NCI-H3122; first compound 0.0002 µM) was 0.339, the relative viability (NCI-H3122; first compound 0.000632 µM) was 0.278 and the relative viability (NCI-H3122; first compound 0.002 µM) was 0.217. It also gave a relative viability (NCI-H3122; first compound 0.006325 µM) of 0.179, a relative viability (NCI-H3122; first compound 0.02 µM) of 0.122 and a relative viability (NCI-H322M; first compound 0.0002 µM) of 0.479. The relative viability (NCI-H322M; first compound 0.000632 µM) was 0.477, the relative viability (NCI-H322M; first compound 0.002 µM) was 0.49 and the relative viability (NCI-H322M; first compound 0.006325 µM) was 0.485. It also gave a relative viability (NCI-H322M; first compound 0.02 µM) of 0.476, a relative viability (NCI-H441; first compound 0.0002 µM) of 0.634 and a relative viability (NCI-H441; first compound 0.000632 µM) of 0.489. The relative viability (NCI-H441; first compound 0.002 µM) was 0.293, the relative viability (NCI-H441; first compound 0.006325 µM) was 0.306 and the relative viability (NCI-H441; first compound 0.02 µM) was 0.248. It also gave a relative viability (NCI-H460) of 0.358.
